This passage reports IC50 results from patent US8546442B2, “Pyrazolopiperidine compounds as CCR1 receptor antagonists” (Boehringer Ingelheim International GmbH, priority 2010, dated 2013).

One may read the IC50 as the concentration that gives 50% inhibition.

Molecules are shown by their SMILES.

The target in the assay is T1, CCR1 (Homo sapiens, UniProt P32246).
T1 sequence (P32246 1-355): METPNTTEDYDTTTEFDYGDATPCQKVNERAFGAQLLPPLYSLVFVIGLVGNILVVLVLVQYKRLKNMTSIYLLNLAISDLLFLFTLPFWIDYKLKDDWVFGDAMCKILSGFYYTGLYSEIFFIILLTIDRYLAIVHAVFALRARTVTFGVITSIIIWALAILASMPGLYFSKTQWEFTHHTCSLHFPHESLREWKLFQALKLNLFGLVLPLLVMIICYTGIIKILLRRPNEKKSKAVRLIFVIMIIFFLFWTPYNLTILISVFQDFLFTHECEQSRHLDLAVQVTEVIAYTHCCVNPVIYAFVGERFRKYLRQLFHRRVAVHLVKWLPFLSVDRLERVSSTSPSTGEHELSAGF
Nature of the assay: calcium flux in CCR1 transfected cells, Method B (Calcium 4 dye, HAMAMATSU FDSS6000). The assay is classed as cell-based. The note with it: cells stably expressing recombinant CCR1 and G-alpha-16, MIP-1alpha at EC80. As to the method: Compounds are assessed for the ability to block the interaction of CCR1 and MIP-1α in a functional cellular assay measuring calcium flux in CCR1 transfected cells.
Method B: Non-adherent cells purchased from Chemicon Corporation (HTS005C), stably expressing recombinant CCR1 and G-alpha-16 are grown in RPMI 1640 medium (Mediatech 10-080-CM) supplemented with 10% FBS, 0.4 mg/mL Geneticin and penicillin/streptomycin. On the day of the assay, the cells are loaded with Calcium 4 dye (Molecular Devices R7448) with Probenecid (Invitrogen P346400) at 8E5 cells/mL for 1 hour at room temperature. After 1 hour, they are seeded in a 384-well tissue culture-treated plate at a density of 20,000 cells/well. Appropriately diluted test compound is added to the well to achieve a top concentration of 3,000 nM (diluted 4-fold with 10 doses total). The final concentration of DMSO is 1%. The buffer is HBSS (Invitrogen 14025) with 20 mM HEPES at pH 7.4. The cells incubate 30 minutes at 37 C and then 30 minutes at room temperature. The plates are transferred to the HAMAMATSU FDSS6000 where MIP-1alpha in 1% BSA is added at the EC80 final concentration. All plates must be read within 4 hours of the start of dye-loading. Wells+/−MIP-1alpha containing diluted DMSO instead of compound serve as the controls. Data are analyzed using Activity Base software.
For `CS(=O)(=O)c1ccc(CNC(=O)N2CCCc3c2cnn3-c2ccc(F)cc2)cc1O` [Example 43, 1-(4-Fluorophenyl)-1,5,6,7-tetrahydro-pyrazolo[4,3-b]pyridine-4-carboxylic acid 3-hydroxy-4-methanesulfonyl-benzylamide], the IC50 turned out to be 25 nM. Turning to `C[C@H](NC(=O)N1CCCc2c1cnn2-c1ccc(F)cc1)c1cncc(S(C)(=O)=O)c1` [Example 44, 1-(4-Fluorophenyl)-1,5,6,7-tetrahydro-pyrazolo[4,3-b]pyridine-4-carboxylic acid [(S)-1-(5-methanesulfonyl-pyridin-3-yl)-ethyl]-amide], the concentration for half-maximal inhibition (IC50) worked out at 18 nM. Next, `C[C@H](NC(=O)N1CCCc2c1cnn2-c1ccc(F)cc1)c1ccc(S(C)(=O)=O)nc1` [Example 52]: 128 nM. To `CC1CCc2c(cnn2-c2ccc(F)cc2)N1C(=O)NCc1ccnc(S(C)(=O)=O)c1` (stereo not shown) [Example 53] belongs 1280 nM. To `CC1CCc2c(cnn2-c2ccc(F)cc2)N1C(=O)N[C@@H](C)c1ccnc(S(C)(=O)=O)c1` (stereo partly shown) [Example 54] belongs 684 nM; to `CC[C@H](NC(=O)N1c2cnn(-c3ccc(F)cc3)c2CCC1C(F)(F)F)c1ccnc(S(C)(=O)=O)c1` (stereo partly shown) [Example 58], 84 nM. For `CS(=O)(=O)c1cc(C2(NC(=O)N3c4cnn(-c5ccc(F)cc5)c4CCC3C(F)(F)F)CC2)ccn1` (stereo not shown) [Example 64], the half-maximal inhibitory concentration (IC50) came out at 1850 nM.

In the case of `CCC[C@H](NC(=O)N1CCCc2c1cnn2C1CCCCC1)c1ccnc(S(C)(=O)=O)c1` [Example 65], the IC50 was determined as 330 nM. To `CCC[C@H](NC(=O)N1CCCc2c1cnn2C1CCCC1)c1ccnc(S(C)(=O)=O)c1` [Example 67] belongs 194 nM; to `CCC[C@H](NC(=O)N1c2cnn(-c3ccc(F)cc3)c2CCC1C(F)(F)F)c1ccc(Br)cc1F` (stereo partly shown) [Example 68], 205 nM; to `CCC[C@H](NC(=O)N1c2cnn(-c3ccc(F)cc3)c2CCC1C(F)(F)F)c1ccc(S(C)(=O)=O)cc1F` (stereo partly shown) [Example 69], 11 nM. With `CCC[C@H](NC(=O)N1c2cnn(-c3ccc(F)cc3)c2CCC1C)c1ccnc(S(C)(=O)=O)c1` (stereo partly shown) [Example 70], the 50% inhibitory concentration (IC50) amounted to 5 nM.

Take `CCC[C@H](NC(=O)N1CCCc2c1cnn2-c1ccc(Cl)cc1)c1ccnc(S(C)(=O)=O)c1` [Example 71]: the 50% inhibitory concentration (IC50) is 0.3 nM. To `CCC[C@H](NC(=O)N1CCCCc2c1cnn2-c1ccc(F)cc1)c1ccnc(S(C)(=O)=O)c1` [Example 72] belongs 344 nM.

In the case of `CCC[C@H](NC(=O)N1CCCCc2c1cnn2-c1ccc(F)cc1)c1cncc(S(C)(=O)=O)c1` [Example 75], the IC50 was found to be 640 nM. To `CCC[C@H](NC(=O)N1CC(C(F)(F)F)Cc2c1cnn2-c1ccc(F)cc1)c1ccnc(S(C)(=O)=O)c1` (stereo partly shown) [Example 78] belongs 4 nM; to `CCC[C@H](NC(=O)N1CC(C(F)(F)F)Cc2c1cnn2-c1ccc(F)cc1)c1ccnc(S(C)(=O)=O)c1` (stereo partly shown) [Example 79], 2 nM. `CC[C@H](NC(=O)N1c2cnn(-c3ccc(F)cc3)c2CCC1C(F)(F)F)c1ccc(OC)c(S(C)(=O)=O)c1` (stereo partly shown) [Example 82]: the 50% inhibitory concentration (IC50) was 23 nM. In the case of `C[C@H](NC(=O)N1CC(C(F)(F)F)Cc2c1cnn2-c1ccc(F)cc1)c1ccnc(S(C)(=O)=O)c1` (stereo partly shown) [Example 83], the IC50 was found to be 1260 nM. To `CC[C@H](NC(=O)N1c2cnn(-c3ccc(F)cc3)c2CCC1C(F)(F)F)c1ccc(S(C)(=O)=O)c(OC)c1` (stereo partly shown) [Example 84] belongs 14 nM; to `CC[C@H](NC(=O)N1c2cnn(-c3ccc(F)cc3)c2CCC1C(F)(F)F)c1ccc(S(C)(=O)=O)c(O)c1` (stereo partly shown) [Example 85], 23 nM. In the case of `CCC[C@H](NC(=O)N1CCCc2c1cnn2-c1ccc(F)c(Cl)c1)c1ccnc(S(C)(=O)=O)c1` [Example 86], the half-inhibitory concentration (IC50) was determined as 2 nM.

Regarding `CCC[C@H](NC(=O)N1CCc2c1cnn2-c1ccc(F)cc1)c1ccnc(S(C)(=O)=O)c1` [Example 87, 1-(4-Fluorophenyl)-5,6-dihydro-1H-pyrrolo[3,2-c]pyrazole-4-carboxylic acid [(S)-1-(2-methanesulfonyl-pyridin-4-yl)-butyl]-amide], the half-inhibitory concentration (IC50) stood at 10 nM. With `CCC[C@H](NC(=O)N1CCc2c1cnn2-c1ccc(F)cc1)c1ccnc(C)c1` [Example 88], the half-maximal inhibitory concentration (IC50) came out at 52 nM. To `CC[C@H](NC(=O)N1CCc2c1cnn2-c1ccc(F)cc1)c1cccc(S(C)(=O)=O)c1` [Example 89] belongs 34 nM; to `CCC[C@H](NC(=O)N1c2cnn(-c3ccc(F)cc3)c2CCC1C(F)(F)F)c1cc(F)cc(S(C)(=O)=O)c1` (stereo partly shown) [Example 90], 6 nM; to `CCC[C@H](NC(=O)N1c2cnn(-c3ccc(Cl)cc3)c2CCC1C)c1ccnc(S(C)(=O)=O)c1` (stereo partly shown) [Example 93], 18 nM. On to `CCC[C@H](NC(=O)N1c2cnn(-c3ccc(F)cc3)c2CCC1C(F)(F)F)c1cccc(S(C)(=O)=O)n1` (stereo partly shown) [Example 94], for which the IC50 turned out to be 57 nM. To `CCC[C@H](NC(=O)N1c2cnn(-c3ccc(F)cc3)c2CCC1C(F)(F)F)c1ccc(OC)c(S(C)(=O)=O)c1` (stereo partly shown) [Example 95] belongs 6 nM; to `CCC[C@H](NC(=O)N1c2cnn(-c3ccc(F)cc3)c2CCC1C(F)(F)F)c1ccc(O)c(S(C)(=O)=O)c1` (stereo partly shown) [Example 96], 7 nM; to `CCC[C@H](NC(=O)N1c2cnn(-c3ccc(F)cc3)c2CCC1C(F)(F)F)c1ccc(OC)c(Br)c1` (stereo partly shown) [Example 97], 5 nM. With `CCC[C@H](NC(=O)N1CCCc2c1c(C)nn2-c1ccc(F)cc1)c1ccnc(S(C)(=O)=O)c1` [Example 98], the half-inhibitory concentration (IC50) is 1570 nM.

For `CCC[C@H](NC(=O)N1CCCc2c1c(C)nn2-c1ccc(F)cc1)c1cncc(S(C)(=O)=O)c1` [Example 99], the IC50 was found to be 1500 nM.

`CCC[C@H](NC(=O)N1CC(C)Cc2c1cnn2-c1ccc(F)cc1)c1ccnc(S(C)(=O)=O)c1` (stereo partly shown) [Example 102]: the IC50 is 0.6 nM. To `CCC[C@H](NC(=O)N1CC(C)(C)Cc2c1cnn2-c1ccc(F)cc1)c1ccnc(S(C)(=O)=O)c1` [Example 103] belongs 0.7 nM; to `CCC[C@H](NC(=O)N1c2cnn(-c3ccc(F)cc3)c2CCC1C(F)(F)F)c1ccc(Br)c(OC)c1` (stereo partly shown) [Example 104], 57 nM; to `CCC[C@H](NC(=O)N1c2cnn(-c3ccc(F)cc3)c2CCC1C(F)(F)F)c1ccc(S(C)(=O)=O)c(OC)c1` (stereo partly shown) [Example 105], 5 nM. To `CCC[C@H](NC(=O)N1c2cnn(-c3ccc(F)cc3)c2CCC1C(F)(F)F)c1ccc(S(C)(=O)=O)c(O)c1` (stereo partly shown) [Example 106] belongs 11 nM; to `CCC[C@H](NC(=O)N1c2cnn(-c3ccc(F)cc3)c2CCC1C)c1cccc(S(C)(=O)=O)n1` (stereo partly shown) [Example 107], 8 nM. To `CCC[C@H](NC(=O)N1c2cnn(-c3ccc(F)cc3)c2CC1C)c1ccnc(S(C)(=O)=O)c1` (stereo partly drawn) [Example 108, 1-(4-Fluorophenyl)-5-methyl-5,6-dihydro-1H-pyrrolo[3,2-c]pyrazole-4-carboxylic acid [(S)-1-(2-methanesulfonyl-pyridin-4-yl)-butyl]-amide] belongs 9 nM; to `CC[C@H](NC(=O)N1c2cnn(-c3ccc(F)cc3)c2CC1C)c1cccc(S(C)(=O)=O)c1` (stereo partly shown) [Example 109], 11 nM; to `CCC[C@H](NC(=O)N1c2cnn(-c3ccc(F)cc3)c2CC[C@@H]1C)c1cncc(S(C)(=O)=O)c1` [Example 111], 22 nM.

`CCC[C@H](NC(=O)N1CC(C(=O)OCC)Cc2c1cnn2-c1ccc(F)cc1)c1ccnc(S(C)(=O)=O)c1` (stereo partly drawn) [Example 114, 1-(4-Fluorophenyl)-4-[(S)-1-(2-methanesulfonyl-pyridin-4-yl)-butylcarbamoyl]-4,5,6,7-tetrahydro-1H-pyrazolo[4,3-b]pyridine-6-carboxylic acid ethyl ester]: the half-inhibitory concentration (IC50) stood at 0.7 nM. Next, `CCC[C@H](NC(=O)N1CC(C(=O)O)Cc2c1cnn2-c1ccc(F)cc1)c1ccnc(S(C)(=O)=O)c1` (stereo partly drawn) [Example 115, 1-(4-Fluorophenyl)-4-[(S)-1-(2-methanesulfonyl-pyridin-4-yl)-butylcarbamoyl]-4,5,6,7-tetrahydro-1H-pyrazolo[4,3-b]pyridine-6-carboxylic acid]: 23 nM; `CCC[C@H](NC(=O)N1CC(C(=O)NC)Cc2c1cnn2-c1ccc(F)cc1)c1ccnc(S(C)(=O)=O)c1` (stereo partly shown) [Example 116]: 1 nM. Next, `CCC[C@H](NC(=O)N1CC(C(=O)NCCO)Cc2c1cnn2-c1ccc(F)cc1)c1ccnc(S(C)(=O)=O)c1` (stereo partly shown) [Example 117]: 1 nM.
